Experiment: wn = mass fraction of the nth substance listed
Conditions: Gas, Burnett expansion method

F/C=C/C(F)(F)F [trans-1,3,3,3-tetrafluoropropene] + CC(C)C
Conditions | mass density [kg/m3]
315.14 K, 227.3 kPa, w1 = 0.65 | 7.7977
315.14 K, 297.2 kPa, w1 = 0.65 | 10.348
315.14 K, 301.4 kPa, w1 = 0.75 | 11.3213
315.14 K, 386 kPa, w1 = 0.65 | 13.7325
315.14 K, 392.5 kPa, w1 = 0.75 | 15.0241
315.14 K, 497.8 kPa, w1 = 0.65 | 18.2238
315.14 K, 506.8 kPa, w1 = 0.75 | 19.9379
315.14 K, 642.7 kPa, w1 = 0.75 | 26.4588
315.15 K, 173.5 kPa, w1 = 0.65 | 5.8759
315.15 K, 173.8 kPa, w1 = 0.7 | 6.1345
315.15 K, 175.6 kPa, w1 = 0.75 | 6.4285
315.15 K, 190.1 kPa, w1 = 0.85 | 7.5778
315.15 K, 229.1 kPa, w1 = 0.7 | 8.1409
315.15 K, 230.4 kPa, w1 = 0.75 | 8.531
315.15 K, 249.3 kPa, w1 = 0.85 | 10.0562
315.15 K, 299.1 kPa, w1 = 0.7 | 10.8034
315.15 K, 325.7 kPa, w1 = 0.85 | 13.3452
315.15 K, 390.1 kPa, w1 = 0.7 | 14.3368
315.15 K, 422.3 kPa, w1 = 0.85 | 17.7101
315.15 K, 497.7 kPa, w1 = 0.7 | 19.0258
315.15 K, 539.7 kPa, w1 = 0.85 | 23.5026
315.16 K, 185.3 kPa, w1 = 0.8 | 7.0584
315.16 K, 317.7 kPa, w1 = 0.8 | 12.4305
315.16 K, 333.2 kPa, w1 = 0.9 | 14.2331
315.16 K, 412.2 kPa, w1 = 0.8 | 16.4962
315.16 K, 529.7 kPa, w1 = 0.8 | 21.8918
315.17 K, 148.1 kPa, w1 = 0.9 | 6.0901
315.17 K, 194.6 kPa, w1 = 0.9 | 8.0819
315.17 K, 243 kPa, w1 = 0.8 | 9.3669
315.17 K, 255.2 kPa, w1 = 0.9 | 10.7253
315.17 K, 432.8 kPa, w1 = 0.9 | 18.8881
315.17 K, 551.9 kPa, w1 = 0.9 | 25.0657
320.12 K, 779.8 kPa, w1 = 0.8 | 33.8752
320.13 K, 286 kPa, w1 = 0.8 | 10.922
320.13 K, 373.2 kPa, w1 = 0.8 | 14.4942
320.13 K, 483.3 kPa, w1 = 0.8 | 19.2347
320.13 K, 616.7 kPa, w1 = 0.8 | 25.5259
320.14 K, 165.2 kPa, w1 = 0.8 | 6.2018
320.14 K, 168.8 kPa, w1 = 0.9 | 6.8698
320.14 K, 218.3 kPa, w1 = 0.8 | 8.2301
320.14 K, 221.7 kPa, w1 = 0.9 | 9.1166
320.14 K, 290.4 kPa, w1 = 0.9 | 12.0982
320.14 K, 378.8 kPa, w1 = 0.9 | 16.0551
320.14 K, 491 kPa, w1 = 0.9 | 21.3061
320.14 K, 621.3 kPa, w1 = 0.9 | 28.2744
320.15 K, 148.8 kPa, w1 = 0.7 | 5.1243
320.15 K, 195.8 kPa, w1 = 0.7 | 6.8002
320.15 K, 256.8 kPa, w1 = 0.7 | 9.0242
320.15 K, 335.6 kPa, w1 = 0.7 | 11.9756
320.15 K, 340.3 kPa, w1 = 0.65 | 11.7766
320.15 K, 435.2 kPa, w1 = 0.7 | 15.8926
320.15 K, 441.3 kPa, w1 = 0.65 | 15.6283
320.15 K, 556 kPa, w1 = 0.7 | 21.0901
320.15 K, 569.2 kPa, w1 = 0.65 | 20.7395
320.16 K, 152 kPa, w1 = 0.65 | 5.039
320.16 K, 154 kPa, w1 = 0.75 | 5.5344
320.16 K, 199.9 kPa, w1 = 0.65 | 6.687
320.16 K, 262 kPa, w1 = 0.65 | 8.8741
320.16 K, 266.1 kPa, w1 = 0.75 | 9.7466
320.16 K, 347.7 kPa, w1 = 0.75 | 12.9343
320.16 K, 577.4 kPa, w1 = 0.75 | 22.7785
320.16 K, 730.8 kPa, w1 = 0.75 | 30.2287
320.17 K, 203 kPa, w1 = 0.75 | 7.3444
320.17 K, 451.9 kPa, w1 = 0.75 | 17.1645
320.19 K, 162.2 kPa, w1 = 0.85 | 6.3277
320.19 K, 214.1 kPa, w1 = 0.85 | 8.3973
320.19 K, 279.4 kPa, w1 = 0.85 | 11.1439
320.19 K, 364.7 kPa, w1 = 0.85 | 14.7884
320.19 K, 472.3 kPa, w1 = 0.85 | 19.6252
320.19 K, 605 kPa, w1 = 0.85 | 26.0438
320.19 K, 764.8 kPa, w1 = 0.85 | 34.5619
325.1 K, 181 kPa, w1 = 0.85 | 6.9723
325.1 K, 219.4 kPa, w1 = 0.75 | 7.845
325.1 K, 287.7 kPa, w1 = 0.75 | 10.4108
325.1 K, 311.6 kPa, w1 = 0.85 | 12.2787
325.1 K, 374.7 kPa, w1 = 0.75 | 13.8158
325.1 K, 406.4 kPa, w1 = 0.85 | 16.2947
325.1 K, 488 kPa, w1 = 0.75 | 18.3343
